The subject of this assay is Acinetobacter baumannii ATCC17978. Kind of assay: Antimicrobial susceptibility testing: 90% growth inhibitory concentration (IC90) determination, Iso-Sensitest broth, OD 600 nm. The format is cell-based. The settings on record: Acinetobacter baumannii, ATCC17978, 16 h, 90% growth inhibitory concentration, Acinetobacter baumannii ATCC17978, Iso-Sensitest broth, OD 600 nm over 16 h; read-out: ATCC 17978 IC90. The method, boiled down: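 Twofold serial dilutions (e.g. 50–0.097 μM final) incubated with ~5×10^5 CFU/ml in Iso-Sensitest broth at 35±2 °C. OD600 read every 20 min for 16 h; IC90 derived from growth inhibition during logarithmic phase.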

Where a name gives a salt, the structure may show the parent alone.

This is an account of results in patent US20230017532A1 (Hoffmann-La Roche Inc., priority 2018, published 2023).

With `COc1ccc(-c2cnc3c(Nc4ccc(C(=O)N(C)CCOCCN5CCS(=O)(=O)CC5)c(C)c4)nccn23)cc1F` [Example 110, N-[2-[2-(1,1-dioxo-1,4-thiazinan-4-yl)ethoxy]ethyl]-4-[[3-(3-fluoro-4-methoxyphenyl)imidazo[1,2-a]pyrazin-8-yl]amino]-N,2-dimethyl-benzamide], the IC90 came to 530 nM.

As to `COc1ccc(-c2cnc3c(Nc4ccc(C(=O)NCCOCCN5CCOC(CN)C5)c(C)c4)nccn23)cc1F` (stereo not shown) [Example 111, N-[2-[2-[2-(aminomethyl)morpholin-4-yl]ethoxy]ethyl]-4-[[3-(3-fluoro-4-methoxyphenyl)imidazo[1,2-a]pyrazin-8-yl]amino]-2-methylbenzamide; hydrochloride], the IC90 was determined as 560 nM.

For the compound `COc1ccc(-c2cnc3c(Nc4ccc(C(=O)NCCOCC(=O)N5CCNCC5)c(C)c4)nccn23)cc1` [Example 112, 4-[[3-(4-methoxyphenyl)imidazo[1,2-a]pyrazin-8-yl]amino]-2-methyl-N-[2-(2-oxo-2-piperazin-1-ylethoxy)ethyl] benzamide], the IC90 was found to be 570 nM.

On to `COc1ccc(-c2cnc3c(Nc4ccc(C(=O)NCCOCCN5CCNCC5)c(C)c4)nccn23)cc1F` [Example 113, 4-[[3-(3-fluoro-4-methoxyphenyl)imidazo[1,2-a]pyrazin-8-yl]amino]-2-methyl-N-[2-(2-piperazin-1-ylethoxy)ethyl] benzamide; hydrochloride], for which the IC90 was 580 nM.

`Cc1cc(Nc2nccn3c(-c4ccc(OC(F)F)cc4)cnc23)ccc1C(=O)NCCOCCN1CC2(COC2)C1` [Example 114, 4-[[3-[4-(difluoromethoxy)phenyl]imidazo [1,2-a]pyrazin-8-yl]amino]-2-methyl-N-[2-[2-(2-oxa-6-azaspiro [3.3]heptan-6-yl)ethoxy]ethyl] benzamide]: the IC90 amounted to 580 nM.

In the case of `COc1ccc(-c2cnc3c(Nc4ccc(C(=O)NCCOCC(=O)N5CCN(C)CC5)c(C)c4)nccn23)cc1` [Example 115], the IC90 amounted to 590 nM.

For the compound `COc1ccc(-c2cnc3c(Nc4ccc(C(=O)NCCOCCO)c(C)c4)nccn23)cc1` [Example 116, N-[2-(2-hydroxyethoxy)ethyl]-4-[[3-(4-methoxyphenyl)imidazo[1,2-a]pyrazin-8-yl]amino]-2-methylbenzamide], the IC90 came out at 590 nM.

Regarding `Cc1cc(Nc2nccn3c(-c4ccc(Cl)cc4)cnc23)ccc1C(=O)NCCNCCN` [Example 117, N-[2-(2-aminoethylamino)ethyl]-4-[[3-(4-chlorophenyl)imidazo[1,2-a]pyrazin-8-yl]amino]-2-methylbenzamide; hydrochloride], the IC90 stood at 590 nM.

With `COc1ccc(-c2cnc3c(Nc4ccc(C(=O)NCCCOCC(=O)N5CCNCC5)c(C)c4)nccn23)cc1F` [Example 118, 4-[[3-(3-fluoro-4-methoxyphenyl)imidazo[1,2-a]pyrazin-8-yl]amino]-2-methyl-N-[3-(2-oxo-2-piperazin-1-ylethoxy)propyl] benzamide; hydrochloride], the IC90 was 600 nM.

On to `Cc1cc(Nc2nccn3c(-c4ccc(OC(F)F)cc4)cnc23)ccc1C(=O)NCCOCCNC(=O)CO` [Example 119, 4-[[3-[4-(difluoromethoxy)phenyl]imidazo [1,2-a]pyrazin-8-yl]amino]-N-[2-[2-[(2-hydroxyacetyl)amino]ethoxy]ethyl]-2-methylbenzamide], for which the IC90 was found to be 610 nM.

Take `COc1ccc(-c2cnc3c(Nc4ccc(C(=O)NCCOCCNC(C)=O)c(C)c4)nccn23)cc1` [Example 120, N-[2-(2-acetamidoethoxy)ethyl]-4-[[3-(4-methoxyphenyl)imidazo[1,2-a]pyrazin-8-yl]amino]-2-methylbenzamide]: the IC90 was found to be 620 nM.

As to `COc1ccc(-c2cnc3c(Nc4ccc(C(=O)NCCOCCN5CCN(C)CC5)c(C)c4)nccn23)cc1` [Example 121, 4-[[3-(4-methoxyphenyl)imidazo[1,2-a]pyrazin-8-yl]amino]-2-methyl-N-[2-[2-(4-methylpiperazin-1-yl)ethoxy]ethyl] benzamide], the IC90 is 620 nM.

As to `Cc1cc(Nc2nccn3c(-c4ccc(Cl)c(F)c4F)cnc23)ccc1C(=O)NCCNCCN` [Example 122, N-[2-(2-aminoethylamino)ethyl]-4-[[3-(4-chloro-2,3-difluorophenyl)imidazo[1,2-a]pyrazin-8-yl]amino]-2-methylbenzamide; hydrochloride], the IC90 worked out at 620 nM.

With `Cc1cc(Nc2nccn3c(-c4ccc(OCC#CCN)cc4)cnc23)ccc1C(=O)NCCOCCN` [Example 123, 4-[[3-[4-(4-aminobut-2-ynoxy)phenyl]imidazo[1,2-a]pyrazin-8-yl]amino]-N-[2-(2-aminoethoxy)ethyl]-2-methylbenzamide; formic acid], the IC90 was determined as 630 nM.

Take `COc1ccc(-c2cnc3c(Nc4ccc(C(=O)NCCCOCC(=O)N5CCOC(CN)C5)c(C)c4)nccn23)cc1F` (stereo not shown) [Example 124, N-[3-[2-[2-(aminomethyl)morpholin-4-yl]-2-oxoethoxy]propyl]-4-[[3-(3-fluoro-4-methoxyphenyl)imidazo[1,2-a]pyrazin-8-yl]amino]-2-methylbenzamide; hydrochloride]: the IC90 is 640 nM.

Turning to `Cc1cc(Nc2nccn3c(-c4ccc(OC(F)F)cc4)cnc23)ccc1C(=O)N(C)CCOCCN1CCNCC1` [Example 126, 4-[[3-[4-(difluoromethoxy)phenyl]imidazo [1,2-a]pyrazin-8-yl]amino]-N,2-dimethyl-N-[2-(2-piperazin-1-ylethoxy)ethyl] benzamide], the IC90 turned out to be 670 nM.

Consider `Cc1cc(Nc2nccn3c(-c4ccc(OC(F)F)cc4)cnc23)ccc1C(=O)NCCOCCNC(=O)CN(C)C` [Example 127, 4-[[3-[4-(difluoromethoxy)phenyl]imidazo [1,2-a]pyrazin-8-yl]amino]-N-[2-[2-[[2-(dimethyl-amino)acetyl]amino]ethoxy]ethyl]-2-methylbenzamide], for which the IC90 came to 670 nM.

Take `CCNCCCN(CC)C(=O)c1ccc(Nc2nccn3c(-c4ccc(OC)c(F)c4)cnc23)cc1C` [Example 128, N-ethyl-N-[3-(ethylamino)propyl]-4-[[3-(3-fluoro-4-methoxyphenyl)imidazo[1,2-a]pyrazin-8-yl]amino]-2-methyl-benzamide]: the IC90 was 3400 nM.

Take `Cc1cc(Nc2nccn3c(-c4ccc(OC(F)F)cc4)cnc23)ccc1C(=O)NCCOCCO` [Example 129, 4-[[3-[4-(difluoromethoxy)phenyl]imidazo [1,2-a]pyrazin-8-yl]amino]-N-[2-(2-hydroxyethoxy)ethyl]-2-methylbenzamide]: the IC90 was determined as 720 nM.

Take `COc1ccc(-c2cnc3c(Nc4ccc(C(=O)N(C)CCOCCN5CCN(C6CC6)CC5)c(C)c4)nccn23)cc1F` [Example 130, N-[2-[2-(4-cyclopropyl-piperazin-1-yl)ethoxy]ethyl]-4-[[3-(3-fluoro-4-methoxyphenyl)imidazo[1,2-a]pyrazin-8-yl]amino]-N,2-dimethyl-benzamide]: the IC90 was determined as 760 nM.

Take `COc1ccc(-c2cnc3c(Nc4ccc(C(=O)N(C)CCOCCN5CCNCC5)c(C)c4)nccn23)cc1F` [Example 131, 4-[[3-(3-fluoro-4-methoxyphenyl)imidazo[1,2-a]pyrazin-8-yl]amino]-N,2-dimethyl-N-[2-(2-piperazin-1-ylethoxy)ethyl]benzamide]: the IC90 worked out at 770 nM.

For the compound `Cc1cc(Nc2nccn3c(-c4ccc(OC(F)F)cc4)cnc23)ccc1C(=O)NCCOCCS(C)(=O)=O` [Example 132, 4-[[3-[4-(difluoro-methoxy)phenyl]imidazo [1,2-a]pyrazin-8-yl]amino]-2-methyl-N-[2-(2-methylsulfonyl-ethoxy)ethyl] benzamide], the IC90 worked out at 780 nM.

With `COc1ccc(-c2cnc3c(Nc4ccc(C(=O)N(C)CCOCCN5CCNCC5)c(C)c4)nccn23)cc1` [Example 133, formic acid; 4-[[3-(4-methoxyphenyl)imidazo[1,2-a]pyrazin-8-yl]amino]-N,2-dimethyl-N-[2-(2-piperazin-1-ylethoxy)ethyl] benzamide], the IC90 was determined as 790 nM.

Take `Cc1cc(Nc2nccn3c(-c4ccc(OC(F)F)cc4)cnc23)ccc1C(=O)NCCOCCN1CCNCC1` [Example 134, 4-[[3-[4-(difluoromethoxy)phenyl]imidazo [1,2-a]pyrazin-8-yl]amino]-2-methyl-N-[2-(2-piperazin-1-ylethoxy)ethyl] benzamide; hydrochloride]: the IC90 amounted to 800 nM.

On to `COc1ccc(-c2cnc3c(Nc4ccc(C(=O)NCCOCC(=O)N5CCOC(CN)C5)c(C)c4)nccn23)cc1F` (stereo not shown) [Example 135, N-[2-[2-[2-(aminomethyl)morpholin-4-yl]-2-oxoethoxy]ethyl]-4-[[3-(3-fluoro-4-methoxyphenyl)imidazo[1,2-a]pyrazin-8-yl]amino]-2-methylbenzamide; hydrochloride], for which the IC90 was 820 nM.

As for `Cc1cc(Nc2nccn3c(-c4ccc(OC(F)F)cc4)cnc23)ccc1C(=O)N(C)CCOCCN` [Example 136, N-[2-(2-aminoethoxy)ethyl]-4-[[3-[4-(difluoro-methoxy)phenyl]imidazo [1,2-a]pyrazin-8-yl]amino]-N,2-dimethyl-benzamide; hydrochloride], the IC90 turned out to be 860 nM.

Turning to `COc1ccc(-c2cnc3c(Nc4ccc(C(=O)N(C)CCOCCN5CCOC(CN)C5)c(C)c4)nccn23)cc1F` (stereo not shown) [Example 137, N-[2-[2-[2-(aminomethyl)morpholin-4-yl]ethoxy]ethyl]-4-[[3-(3-fluoro-4-methoxyphenyl)imidazo[1,2-a]pyrazin-8-yl]amino]-N,2-dimethyl-benzamide; hydrochloride], the IC90 was 940 nM.

Regarding `Cc1cc(Nc2nccn3c(-c4ccc(Cl)cc4)cnc23)ccc1C(=O)N(C)CCOCCN` [Example 138, N-[2-(2-aminoethoxy)ethyl]-4-[[3-(4-chlorophenyl)imidazo[1,2-a]pyrazin-8-yl]amino]-N,2-dimethyl-benzamide; hydrochloride], the IC90 worked out at 960 nM.

Usually IC90 stands for the concentration at which the effect reaches the 90% level.
